The source of these data is patent publication US20260200920A1, “SUBSTITUTED AMINOPYRIDINE COMPOUNDS FOR USE AS AKT1 INHIBITORS” (Atavistik Bio, Inc., priority 2023, published 2026).

In test [1] the target is T1, human recombinant kinase full-length wildtype AKT1 (Homo sapiens, UniProt P31749).
T1 construct: Purified human recombinant kinase full-length wildtype AKT1 was expressed in insect cells; made in house; host or cells: insect cells
Briefly: AKT1 kinase assay (wildtype, TR-FRET, Lance). The class given is biochemical. The following applies: 0.6 nM wildtype AKT1, 50 nM Ulight-CREBtide, either 50 μM ATP or 2 mM ATP, 60 min at RT. The method, boiled down:
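Insect-cell-expressed full-length human AKT1, PDPK1-activated (0.6 nM), preincubated with compound 15 min at RT, then reacted 60 min at RT with 50 nM ULight-CREBtide and 50 μM or 2 mM ATP (pH 7.5, 1% DMSO). Phospho-CREBtide read by Eu-anti-phospho-Ser133 TR-FRET (665/620 ratio); IC50 from 10-point 4-parameter fit.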
A general note: In TR-FRET formats the signal depends on donor and acceptor labels being close together.

The target in test [2] is T2, human recombinant kinase full-length AKT1 E17K (Homo sapiens, UniProt P31749, E17K).
T2 construct: Purified human recombinant kinase full-length AKT1 E17K was expressed in insect cells; made in house; host or cells: insect cells
The test can be described thus: AKT1 E17K kinase assay (TR-FRET, Lance). The test is classed as biochemical. The note with it: 0.6 nM AKT1 E17K, 50 nM Ulight-CREBtide, either 50 μM ATP or 2 mM ATP, 60 min at RT. The method in brief:
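Full-length AKT1 E17K from insect cells, PDPK1-activated, at 0.6 nM with 50 nM Ulight-CREBtide and 50 μM or 2 mM ATP, pH 7.5, 1% DMSO. Enzyme and compound preincubated 15 min, reaction run 60 min at RT; Eu-anti-phospho-CREB (Ser133) TR-FRET 665/620 ratio, 10-point curve, IC50 by 4-parameter fit.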

Where only a bound is given, the exact number is not on record here.

T1 sequence (P31749 whole entry): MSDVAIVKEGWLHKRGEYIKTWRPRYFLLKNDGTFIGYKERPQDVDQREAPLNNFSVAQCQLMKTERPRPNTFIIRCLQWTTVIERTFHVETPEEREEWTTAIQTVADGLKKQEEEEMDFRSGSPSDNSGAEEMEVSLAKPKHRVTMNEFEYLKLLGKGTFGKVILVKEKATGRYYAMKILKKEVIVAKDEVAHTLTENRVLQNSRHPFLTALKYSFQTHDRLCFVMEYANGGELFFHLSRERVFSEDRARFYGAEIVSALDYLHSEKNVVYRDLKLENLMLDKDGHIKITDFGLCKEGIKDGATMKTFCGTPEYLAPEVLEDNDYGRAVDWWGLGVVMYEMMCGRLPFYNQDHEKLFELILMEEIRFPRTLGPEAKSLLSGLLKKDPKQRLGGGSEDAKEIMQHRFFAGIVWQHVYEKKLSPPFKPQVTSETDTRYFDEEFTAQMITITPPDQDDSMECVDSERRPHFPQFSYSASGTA
T2 sequence (P31749 whole entry E17K): as the sequence (P31749 whole entry) above, with E17K counted along it

By IC50 is commonly meant the midpoint of a concentration-inhibition curve. In the case of `Cc1nc(NC(=O)C2CC3(CC(C(=O)O)C3)C2)ccc1-n1c(-c2cccnc2N)nc2ccc(-c3ccccc3)nc21` (stereo not shown) [Compound I-125, 6-((5-(2-(2-aminopyridin-3-yl)-5-phenyl-3H-imidazo[4,5-b]pyridin-3-yl)-6-methylpyridin-2-yl)carbamoyl)spiro[3.3]heptane-2-carboxylic acid], the results for the IC50 in test [1] and in test [2] were below 20 µM and below 0.5 µM, respectively.
Consider `CC(C)(C(=O)O)[C@H]1CCN(Cc2ccc(-n3c(-c4cccnc4N)nc4ccc(-c5ccccc5)nc43)cc2)C1` (stereo in doubt) [Compound I-175], for which the IC50 in test [1] was below 20 µM; in test [2] it was 0.5 to 2 µM.
As to `CC(C)(C(=O)O)[C@@H]1CCN(Cc2ccc(-n3c(-c4cccnc4N)nc4ccc(-c5ccccc5)nc43)cc2)C1` (stereo in doubt) [Compound I-174], the values for the IC50 in test [1] and in test [2] were below 20 µM and 0.5 to 2 µM, respectively.
The like results for `C[C@]1(C(=O)O)CC[C@H](CN2CC(c3ccc(-n4c(-c5cccnc5N)nc5ccc(-c6ccccc6)nc54)cc3)C2)CC1` [Compound I-138, (1r,4r)-4-((3-(4-(2-(2-aminopyridin-3-yl)-5-phenyl-3H-imidazo[4,5-b]pyridin-3-yl)phenyl)azetidin-1-yl)methyl)-1-methylcyclohexane-1-carboxylic acid] were, in that order, below 20 µM and below 0.5 µM.
For `CC1(C)CN(Cc2ccc(-n3c(-c4cccnc4N)nc4ccc(-c5ccccc5)nc43)cc2)CCC1C(=O)O` (stereo not shown) [Compound I-85, 1-[[4-[2-(2-amino-3-pyridyl)-5-phenyl-imidazo[4,5-b]pyridin-3-yl]phenyl]methyl]-3,3-dimethyl-piperidine-4-carboxylic acid], the IC50 was below 20 µM in test [1] and at least 2 µM in test [2].
In the same order, the values of `CC1(C)C[C@@H](C(=O)O)CC[C@@H]1CN1CC(c2ccc(-n3c(-c4cccnc4N)nc4ccc(-c5ccccc5)nc43)cc2)C1` (stereo in doubt) [Compound I-145] are below 20 µM and 0.5 to 2 µM.
In the case of `CN(Cc1ccc(-n2c(-c3cccnc3N)nc3ccc(-c4ccccc4)nc32)cc1)[C@@H]1CC[C@@H](C(=O)O)C1` [Compound I-170], the half-inhibitory concentration (IC50) is below 20 µM in test [1] and below 0.5 µM in test [2].
Regarding `Cc1cc(C2CN(CC3CC4(C3)CC(C(=O)O)C4)C2)ccc1-n1c(-c2cccnc2N)nc2ccc(-c3ccccc3)nc21` (stereo not shown) [Compound I-204], the values for the IC50 in test [1] and in test [2] were below 20 µM and below 0.5 µM, respectively.
`Cc1cc(CN(C)[C@H]2CC[C@H](C(=O)O)CC2)ccc1-n1c(-c2cccnc2N)nc2ccc(-c3ccccc3)nc21` [Compound I-178]: the figures for the IC50 in test [1] and in test [2] were below 20 µM and at least 2 µM, respectively.
Take `CC(C)(NC1CCC(C(=O)O)CC1)c1ccc(-n2c(-c3cccnc3N)nc3ccc(-c4ccccc4)nc32)cc1` (stereo not shown) [Compound I-89, (1r,4r)-4-((2-(4-(2-(2-aminopyridin-3-yl)-5-phenyl-3H-imidazo[4,5-b]pyridin-3-yl)phenyl)propan-2-yl)amino)cyclohexane-1-carboxylic acid]: the IC50 in test [1] is below 20 µM; in test [2], at least 2 µM.
In the same order, the values of `Nc1ncccc1-c1nc2ccc(-c3ccccc3)nc2n1-c1ccc(C2CCN(CC34CCC(C(=O)O)(CC3)CC4)CC2)cc1` [Compound I-195] are below 20 µM and 0.5 to 2 µM.
Regarding `CNC(=O)[C@H]1CC[C@H](C(=O)Nc2ccc(-n3c(-c4cccnc4N)nc4ccc(-c5ccccc5)nc43)c(C)n2)CC1` [Compound I-141, (1r,4r)-N1-(5-(2-(2-aminopyridin-3-yl)-5-phenyl-3H-imidazo[4,5-b]pyridin-3-yl)-6-methylpyridin-2-yl)-N4-methylcyclohexane-1,4-dicarboxamide], the concentration for half-maximal inhibition (IC50) in test [1] is below 20 µM; in test [2] it was 0.5 to 2 µM.
The like results for `Cc1nc(CN(C)[C@H]2CC[C@H](C(=O)O)CC2)ccc1-n1c(-c2cccnc2N)nc2ccc(-c3ccccc3)nc21` [Compound I-183] were, in that order, below 20 µM and at least 2 µM.
In the same order, the values of `CC(C(=O)O)C1CCN(c2ccc(-n3c(-c4cccnc4N)nc4ccc(-c5ccccc5)nc43)cn2)C1` (stereo not shown) [Compound I-26, 2-(1-(5-(2-(2-aminopyridin-3-yl)-5-phenyl-3H-imidazo[4,5-b]pyridin-3-yl)pyridin-2-yl)pyrrolidin-3-yl)propanoic acid] are below 20 µM and at least 2 µM.
The like results for `Nc1ncccc1-c1nc2ccc(-c3ccccc3)nc2n1-c1ccc(C2CCN(C[C@H]3CCC[C@@H](C(=O)O)C3)CC2)cc1` (stereo in doubt) [Compound I-191] were, in that order, below 20 µM and 0.5 to 2 µM.
On to `CC(C)(N[C@@H]1CC[C@@H](C(=O)O)C1)c1ccc(-n2c(-c3cccnc3N)nc3ccc(-c4ccccc4)nc32)cc1` [Compound I-87, (1R,3R)-3-((2-(4-(2-(2-aminopyridin-3-yl)-5-phenyl-3H-imidazo[4,5-b]pyridin-3-yl)phenyl)propan-2-yl)amino)cyclopentane-1-carboxylic acid], for which the IC50 was below 20 µM in test [1] and at least 2 µM in test [2].
In the same order, the values of `Cc1cc2nc(-c3cccnc3N)n(-c3ccc(C4CN(C[C@H]5CC[C@H](C(=O)O)CC5)C4)cc3)c2nc1-c1ccccc1` [Compound I-235, trans-4-((3-(4-(2-(2-aminopyridin-3-yl)-6-methyl-5-phenyl-3H-imidazo[4,5-b]pyridin-3-yl)phenyl)azetidin-1-yl)methyl)cyclohexane-1-carboxylic acid] are below 20 µM and below 0.5 µM.
As to `Nc1ncccc1-c1nc2ccc(-c3ccccc3)nc2n1-c1c(F)cc(C2CN(C[C@H]3CC[C@H](C(=O)O)CC3)C2)cc1F` [Compound I-208], the 50% inhibitory concentration (IC50) was below 20 µM in test [1] and 0.5 to 2 µM in test [2].
In the same order, the values of `Nc1ncccc1-c1nc2ccc(-c3ccccc3)nc2n1-c1ccc(C2CCN(CC3CCC(C(=O)O)CC3)C2)cc1` (stereo not shown) [Compound I-78, 4-((3-(4-(2-(2-aminopyridin-3-yl)-5-phenyl-3H-imidazo[4,5-b]pyridin-3-yl)phenyl)pyrrolidin-1-yl)methyl)cyclohexane-1-carboxylic acid] are below 20 µM and 0.5 to 2 µM.
As to `Cc1nc(NC(=O)[C@H]2CC[C@H](C(=O)O)CC2)ccc1-n1c(-c2cccnc2N)nc2ccc(-c3cccc(F)c3F)nc21` [Compound I-219], the IC50 was below 20 µM in test [1] and 0.5 to 2 µM in test [2].
In the case of `C[C@@H]([C@H]1CC[C@H](C(=O)O)CC1)N1CC(c2ccc(-n3c(-c4cccnc4N)nc4ccc(-c5ccccc5)nc43)cc2)C1` [Compound I-60, (1S,4r)-4-((S)-1-(3-(4-(2-(2-aminopyridin-3-yl)-5-phenyl-3H-imidazo[4,5-b]pyridin-3-yl)phenyl)azetidin-1-yl)ethyl)cyclohexane-1-carboxylic acid], the 50% inhibitory concentration (IC50) in test [1] was below 20 µM; in test [2], 0.5 to 2 µM.
With `CC(C)CN(Cc1ccc(-n2c(-c3cccnc3N)nc3ccc(-c4ccccc4)nc32)cc1)[C@H]1CC[C@H](C(=O)O)CC1` [Compound I-166], the IC50 in test [1] was below 20 µM; in test [2], at least 2 µM.
As for `Cc1nc(NC(=O)[C@H]2CC[C@H](C(=O)O)CC2)ccc1-n1c(-c2cccnc2N)nc2ccc(-c3ccccn3)cc21` [Compound I-130, (1r,4r)-4-((5-(2-(2-aminopyridin-3-yl)-6-(pyridin-2-yl)-1H-benzo[d]imidazol-1-yl)-6-methylpyridin-2-yl)carbamoyl)cyclohexane-1-carboxylic acid], the IC50 in test [1] was below 20 µM; in test [2], at least 2 µM.
